Molecules are shown by their SMILES.

Assay [1] has as its target T1, h-GABAA α1β2γ1 (Homo sapiens, UniProt P14867+Q8N1C3).
T1 construct: expressed in transfected cells; host or cells: HEK293F cells (ThermoFisher R79007), membranes
T1 sequence (P14867 28-456): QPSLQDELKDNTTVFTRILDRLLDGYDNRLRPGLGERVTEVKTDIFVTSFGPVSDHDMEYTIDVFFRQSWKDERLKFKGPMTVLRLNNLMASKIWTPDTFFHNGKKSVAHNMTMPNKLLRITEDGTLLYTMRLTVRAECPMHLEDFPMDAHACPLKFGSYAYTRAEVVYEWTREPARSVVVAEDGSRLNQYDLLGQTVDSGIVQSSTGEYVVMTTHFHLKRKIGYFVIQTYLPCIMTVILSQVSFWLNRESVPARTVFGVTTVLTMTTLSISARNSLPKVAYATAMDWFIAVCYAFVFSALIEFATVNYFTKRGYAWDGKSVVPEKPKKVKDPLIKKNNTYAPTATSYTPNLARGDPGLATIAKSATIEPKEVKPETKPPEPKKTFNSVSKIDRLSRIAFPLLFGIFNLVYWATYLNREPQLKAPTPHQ
T1 sequence (P47870 25-512 partner limits assumed): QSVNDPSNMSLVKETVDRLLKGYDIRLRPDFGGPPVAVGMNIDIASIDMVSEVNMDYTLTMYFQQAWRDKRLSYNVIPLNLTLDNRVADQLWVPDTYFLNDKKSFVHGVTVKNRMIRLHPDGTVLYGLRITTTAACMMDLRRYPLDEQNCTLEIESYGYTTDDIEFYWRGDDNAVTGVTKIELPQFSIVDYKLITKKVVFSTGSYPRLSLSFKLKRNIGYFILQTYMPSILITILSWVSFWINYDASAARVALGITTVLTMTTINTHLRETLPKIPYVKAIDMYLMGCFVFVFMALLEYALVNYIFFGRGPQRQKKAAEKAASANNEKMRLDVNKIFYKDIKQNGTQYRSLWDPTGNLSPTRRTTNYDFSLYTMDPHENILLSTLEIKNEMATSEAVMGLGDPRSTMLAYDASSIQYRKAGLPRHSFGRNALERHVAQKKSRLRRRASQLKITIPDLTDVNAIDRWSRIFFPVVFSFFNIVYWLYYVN
T1 sequence (Q8N1C3 36-465): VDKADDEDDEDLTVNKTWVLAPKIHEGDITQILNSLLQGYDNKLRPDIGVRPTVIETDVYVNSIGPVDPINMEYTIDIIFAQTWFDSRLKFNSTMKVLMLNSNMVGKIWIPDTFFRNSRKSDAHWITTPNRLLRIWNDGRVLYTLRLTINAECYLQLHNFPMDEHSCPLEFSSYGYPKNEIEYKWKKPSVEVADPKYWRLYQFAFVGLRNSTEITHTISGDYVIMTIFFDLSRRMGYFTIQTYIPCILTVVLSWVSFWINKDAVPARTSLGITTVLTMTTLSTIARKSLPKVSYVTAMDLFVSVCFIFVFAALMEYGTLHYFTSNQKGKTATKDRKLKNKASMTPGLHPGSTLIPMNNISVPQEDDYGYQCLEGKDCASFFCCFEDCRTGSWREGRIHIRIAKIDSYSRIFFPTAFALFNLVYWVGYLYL
Briefly: Radioligand binding assay, [3H]RO7239181 competition, HEK293F membranes. The procedure: The affinity of compounds at GABAA γ1 subunit-containing receptors was measured by competition for [^3H]RO7239181 (67.3 Ci/mmol; Roche) binding to membranes from HEK293F cells (ThermoFisher R79007) expressing human (transiently transfected) receptors of composition […], α2β2γ1, α1β2γ1.
Harvested pellets from HEK293F cells expressing the different GABAA receptor subtypes were resuspended in Mannitol Buffer pH 7.2-7.4 (Mannitol 0.29M, Triethylamine 10 mM, Acetic acid 10 mM, EDTA 1 mM plus protease inhibitors (20 tablets Complete, Roche Diagnostics Cat. No. 05 056 489 001 per liter)), washed two times and then resuspended at 1:10 to 1:15 dilution in the same buffer. Cell disruption was performed by stirring the suspension in a Parr vessel #4637 at 435 psi for 15 minutes, and then the suspensions were centrifuged at 1000×g for 15 minutes at 4° C. (Beckman Avanti J-HC; rotor JS-4.2). The supernatant (S1) was transferred in a 21 Schott flask and the pellet (P1) was resuspended with Mannitol Buffer up to 175 ml. The resuspended pellet was transferred into a 250 ml Corning centrifugal beaker and centrifuged at 1500×g for 10 minutes at 4° C. (Beckman Avanti J-HC; rotor JS-4.2). The supernatant (S1) was then transferred in the 21 Schott flask and the pellet was discarded. The supernatants (S1) were centrifuged in 500 ml Beckman polypropylene centrifugal beaker at 15′000×g for 30 minutes at 4° C. (Beckman Avanti J-20 XP; rotor JLA-10.500). The pellet (P2) was resuspended with Mannitol Buffer 1:1 and frozen at −80° C. The supernatant (S2) was centrifuged in 100 ml Beckman polypropylene centrifugal tubes at 48000×g for 50 minutes at 4° C. (Beckman Avanti J-20 XP; rotor JA-18). The supernatant (S3) was discarded and the pellet (P3) was resuspended with 1:1 Mannitol Buffer. The P2 and P3 protein concentration was determined with the BIORAD Standard assay method with bovine serum albumin as standard and measured on the NANO-Drop 1000. The membrane suspension was aliquots (500 μl per tube) and stored at −80° C. until required. Membrane homogenates were resuspended and polytronised (Polytron PT1200E Kinematica AG) in Potassium Phosphate 10 mM, KCl 100 mM binding buffer at pH 7.4 to a final assay concentration determined with a previous experiment.
Assays were incubated to equilibrium for 1 hour at 4° C. and then, membranes were filtered onto unifilter (96-well white microplate with bonded GF/C filters preincubated 20-50 minutes in 0.3% Polyethylenimine) with a Filtermate 196 harvester (Packard BioScience) and washed 4 times with cold Potassium Phosphate 10 mM pH 7.4, KCl 100 mM binding buffer. After drying, filter-retained radioactivity was detected by liquid scintillation counting. Ki values were calculated using Excel-Fit (Microsoft) and are the means of two determinations.

Assay [2] addresses T2, h-GABAA α1β3γ2 (Homo sapiens, UniProt P14867+P18507).
T2 construct: expressed in transfected cells; host or cells: HEK293F cells, membranes
Briefly: Radioligand binding assay, [3H]Flumazenil competition, HEK293F membranes. The note with it: for γ2/γ1 Selectivity Ratio / LogSel: Table 1; for γ2/γ1 Selectivity Ratio: Ki α1β3γ2 (nM)/Ki α2β2γ1 (nM); for LogSel: Log[Ki α1β3γ2 (nM)/Ki α2β2γ1 (nM)]. The procedure, abridged: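 [3H]Flumazenil competition binding on membranes from HEK293F cells transiently expressing human α1β3γ2 receptors. Incubation to equilibrium for 1 h at 4 °C, then filtration and scintillation counting. Ki is the mean of two determinations.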

Turning to `Fc1ccccc1C1=NCc2nnc(-c3cccnn3)n2-c2ccc(Br)c(Cl)c21` [Example 3, 8-bromo-7-chloro-6-(2-fluorophenyl)-1-pyridazin-3-yl-4H-[1,2,4]triazolo[4,3-a][1,4]benzodiazepine], the Ki – broadly, a measure of affinity in units of concentration, obtained from inhibition or displacement – in assay [1] amounted to 26.1 nM. Besides, in assay [2], affinity was put at a Ki of 453 nM, the “γ2/γ1 Selectivity Ratio” value came to 51.2 and the LogSel came to 1.71.
Taken in the same sequence, the figures for `Cc1nnc2n1-c1ccc(Br)c(Cl)c1C(c1c(F)cccc1Cl)=NC2` [Example 50, 8-bromo-7-chloro-6-(2-chloro-6-fluoro-phenyl)-1-methyl-4H-[1,2,4]triazolo[4,3-a][1,4]benzodiazepine] were 8.9 nM, 73.8 nM, 15.8 and 1.20.
Taken in the same sequence, the figures for `Cn1cc(-c2nnc3n2-c2ccc(Cl)c(Cl)c2C(c2ncccc2F)=NC3)cn1` [Example 58, 7,8-dichloro-6-(3-fluoro-2-pyridyl)-1-(1-methylpyrazol-4-yl)-4H-[1,2,4]triazolo[4,3-a][1,4]benzodiazepine] were 131 nM, 1300 nM, 39.4 and 1.60.
Taken in the same sequence, the figures for `Fc1cccc(F)c1C1=NCc2nncn2-c2ccc(C(F)F)c(Cl)c21` [Example 23, 7-chloro-8-(difluoromethyl)-6-(2,6-difluorophenyl)-4H-[1,2,4]triazolo[4,3-a][1,4]benzodiazepine] were 63.9 nM, 1200 nM, 22.0 and 1.34.
For `O=c1[nH]nc2n1-c1ccc(Br)c(Cl)c1C(c1ccccc1F)=NC2` [Example 26, 8-bromo-7-chloro-6-(2-fluorophenyl)-2,4-dihydro-[1,2,4]triazolo[4,3-a][1,4]benzodiazepin-1-one], the inhibitory constant (Ki) in assay [1] was 24.1 nM. Besides, in assay [2], the inhibition constant Ki stood at 698 nM, the “γ2/γ1 Selectivity Ratio” value is reported as 22.1 and the LogSel worked out at 1.34.
Taken in the same sequence, the figures for `Cc1nnc2n1-c1ccc(Br)c(Cl)c1C(c1ncccc1F)=NC2` [Example 24, 8-bromo-7-chloro-6-(3-fluoro-2-pyridyl)-1-methyl-4H-[1,2,4]triazolo[4,3-a][1,4]benzodiazepine] were 43.6 nM, 608 nM, 25.0 and 1.40.
Taken in the same sequence, the figures for `COc1ccc2c(c1Cl)C(c1c(F)cccc1F)=NCc1nnc(-c3cccnc3)n1-2` [Example 62, 7-chloro-6-(2,6-difluorophenyl)-8-methoxy-1-(3-pyridyl)-4H-[1,2,4]triazolo[4,3-a][1,4]benzodiazepine] were 161 nM, 2150 nM, 38.9 and 1.59.
`CO[C@H]1C[C@H](c2nnc3n2-c2ccc(Cl)c(Cl)c2C(c2c(F)cccc2F)=NC3)C1` [Example 91, trans-7,8-dichloro-6-(2,6-difluorophenyl)-1-(3-methoxycyclobutyl)-4H-[1,2,4]triazolo[4,3-a][1,4]benzodiazepine]: the inhibition constant Ki in assay [1] was 51.3 nM. In assay [2], the Ki turned out to be 1340 nM, the “γ2/γ1 Selectivity Ratio” value worked out at 36.8 and the LogSel is on record as 1.57.
Turning to `Clc1cccnc1C1=NCc2nnc(-c3cccnn3)n2-c2ccc(Br)c(Cl)c21` [Example 47, 8-bromo-7-chloro-6-(3-chloro-2-pyridyl)-1-pyridazin-3-yl-4H-[1,2,4]triazolo[4,3-a][1,4]benzodiazepine], the Ki in assay [1] came to 7 nM. In addition, in assay [2], the Ki turned out to be 222 nM, the “γ2/γ1 Selectivity Ratio” value stood at 14.0 and the LogSel is 1.15.
In assay [1], `Cl.NCc1nnc2n1-c1ccc(Br)c(Cl)c1C(c1c(F)cccc1F)=NC2` [Example 36, [8-bromo-7-chloro-6-(2,6-difluorophenyl)-4H-[1,2,4]triazolo[4,3-a][1,4]benzodiazepin-1-yl]methanamine hydrochloride] yielded a Ki of 11.9 nM. In assay [2], the Ki came out at 180 nM, the “γ2/γ1 Selectivity Ratio” value was found to be 21.2 and the LogSel was found to be 1.33.
In turn, `Fc1cccc(F)c1C1=NCc2nncn2-c2ccc(Cl)c(Cl)c21` [Example 15, 7,8-dichloro-6-(2,6-difluorophenyl)-4H-[1,2,4]triazolo[4,3-a][1,4]benzodiazepine] showed a Ki in assay [1] of 11.5 nM. Further, in assay [2], the Ki came to 249 nM, the “γ2/γ1 Selectivity Ratio” value is 28.7 and the LogSel was 1.46.
Taken in the same sequence, the figures for `CC(F)(F)c1ccc2c(c1Cl)C(c1c(F)cccc1F)=NCc1nncn1-2` [Example 21, 7-chloro-8-(1,1-difluoroethyl)-6-(2,6-difluorophenyl)-4H-[1,2,4]triazolo[4,3-a][1,4]benzodiazepine] were 90.5 nM, 1790 nM, 34.5 and 1.54.
Taken in the same sequence, the figures for `Fc1cccnc1C1=NCc2nnc(-c3cccnn3)n2-c2ccc(Br)c(Cl)c21` [Example 45, 8-bromo-7-chloro-6-(3-fluoro-2-pyridyl)-1-pyridazin-3-yl-4H-[1,2,4]triazolo[4,3-a][1,4]benzodiazepine] were 54.4 nM, 1220 nM, 77.7 and 1.89.
Taken in the same sequence, the figures for `Cc1nnc2n1-c1ccc(Cl)c(Cl)c1C(c1ccccc1F)=NC2` [Example 4, 7,8-dichloro-6-(2-fluorophenyl)-1-methyl-4H-[1,2,4]triazolo[4,3-a][1,4]benzodiazepine] were 103 nM, 795 nM, 12.1 and 1.08.

For the origin of these results see US20230141603A1, “BENZODIAZEPINE DERIVATIVES AS GABA A GAMMA1 PAM” (Hoffmann-La Roche Inc., priority 2021, published 2023).
